Assay results reported in patent US20200061026A1, “METHODS AND COMPOSITIONS FOR PREVENTING VECTOR-BORNE DISEASE TRANSMISSION” (The Scripps Research Institute, priority 2016, published 2020).
Like-named read-outs stand apart in the source and are kept apart here.

Tests used:
[1] = Hepatocyte stability assay, mouse; format: in vitro ADME
Description: (§1) Example 7. In Vitro Metabolic Stability of Isoxazoline Compounds in cd-1 Mouse, sd Rat, Beagle Dog, Cynomolgus Monkey and Human Cryopreserved Hepatocytes
(§2) Isoxazoline compounds (at 1 μM) were incubated with cryopreserved hepatocytes (0.5×10^6 cells per mL) in duplicates (n=2) at 37° C. using 96-well plate format.
(§3) Time points were 0, 15, 30, 60 and 90 minutes in separate plates and medium control samples without cells at 0 and 90 minutes were also incubated. At each time point the reaction was stopped by adding organic solution containing internal standard (IS).
(§4) Positive controls 7-ethoxycoumarin and 7-hydroxycoumarin were included in parallel.
(§5) The samples were analyzed by LC-MS/MS. Disappearance of the test compound was assessed based on peak area ratios of analyte/IS (no standard curve).
(§6) Intrinsic clearance and t½ values were then calculated.

[2] = Hepatocyte stability assay, rat; format: in vitro ADME; conditions: SD, hepatocytes
Description: as §1, §2, §3, §4, §5, §6

Solubility at pH 6.8 = format: physicochemical; conditions: pH 6.8, aqueous buffer
CYP 2C9 = target: T1, CYP 2C9 (Homo sapiens, UniProt P11712); assay: Reversible CYP inhibition in human liver microsomes, CYP 2C9; format: in vitro ADME; conditions: diclofenac, read-out: Cyp microsome IC50, 2C9
T1 construct: individual CYPs in a pool of human liver microsomes; from tissue; host or cells: pooled human liver microsomes
T1 sequence (P11712 whole entry): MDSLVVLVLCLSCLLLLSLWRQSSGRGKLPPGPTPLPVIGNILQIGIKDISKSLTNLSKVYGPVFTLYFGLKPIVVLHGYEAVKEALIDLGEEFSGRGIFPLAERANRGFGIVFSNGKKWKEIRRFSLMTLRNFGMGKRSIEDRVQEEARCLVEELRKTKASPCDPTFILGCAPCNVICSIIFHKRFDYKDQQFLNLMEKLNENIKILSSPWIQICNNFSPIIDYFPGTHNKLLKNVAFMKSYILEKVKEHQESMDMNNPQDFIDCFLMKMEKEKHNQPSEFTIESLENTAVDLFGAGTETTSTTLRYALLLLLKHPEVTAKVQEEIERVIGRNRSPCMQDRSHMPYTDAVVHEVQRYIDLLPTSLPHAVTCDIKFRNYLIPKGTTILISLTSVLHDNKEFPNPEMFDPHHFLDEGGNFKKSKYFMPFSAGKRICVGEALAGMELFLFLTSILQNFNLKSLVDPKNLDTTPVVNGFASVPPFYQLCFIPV
Description: (§7) Reversible inhibition of cytochrome P450s (CYPs) in human liver microsomes was tested using prototypical, isoform-selective activity assays for individual CYPs in a pool of human liver microsomes (i.e., testosterone for CYP 3A4, phenacetin for CYP 1A2, bufuralol for CYP 2D6, S-mephenytoin for CYP 2C19, and diclofenac for CYP 2C9). The assay provides 8-point IC50 determinations in the range of 0.010 to 50 μM drug concentrations for major isoforms of CYP450.

[3] = Plasma protein binding (equilibrium dialysis), mouse; format: in vitro ADME; conditions: 2 μM
Description: Frozen plasma (EDTA-K2 as anticoagulant) pooled from multiple individuals of various species was used as a test matrix. The plasma was purchased from commercial vendors or prepared in house from animals. Warfarin was used as a positive control.
Isoxazoline compounds were spiked into the blank matrix at the final concentration of 2 μM.
A 150 μL aliquot of matrix sample was added to one side of the chamber in a 96-well equilibrium dialyzer plate (HTD dialysis) and an equal volume of dialysis buffer was added to the other side of the chamber. An aliquot of matrix sample was harvested before the incubation and used as T0 samples for recovery calculation. Triplicate incubations were performed.
The dialyzer plate was placed in a humidified incubator and rotated slowly for 4 hours at 37° C. After incubation, samples were taken from the matrix side as well as the buffer side. The plasma sample was matched with equal volume of blank buffer; and buffer samples were matched with equal volume of blank plasma. The matrix-matched samples were quenched with a stop solution containing internal standard.
The samples were analyzed by LC-MS/MS.
Then, % bound fraction at 4 hours (% bound=1−% unbound) and % recovery in incubates at 4 hours were calculated.
The stability of compounds in mouse (ms), rat (r), dog (d), cynomolgus monkey (cy), and human (hu) plasma is shown in Table 10 by the percentages of compounds remaining at two hours.

[4] = Lipophilicity, ALogD at pH 7.4; format: physicochemical
hERG channels = hERG channels (Homo sapiens, UniProt Q12809); assay: hERG channel manual patch clamp assay (CHO-K1 cells); format: cell-based
Sequence of hERG channels (Q12809 whole entry): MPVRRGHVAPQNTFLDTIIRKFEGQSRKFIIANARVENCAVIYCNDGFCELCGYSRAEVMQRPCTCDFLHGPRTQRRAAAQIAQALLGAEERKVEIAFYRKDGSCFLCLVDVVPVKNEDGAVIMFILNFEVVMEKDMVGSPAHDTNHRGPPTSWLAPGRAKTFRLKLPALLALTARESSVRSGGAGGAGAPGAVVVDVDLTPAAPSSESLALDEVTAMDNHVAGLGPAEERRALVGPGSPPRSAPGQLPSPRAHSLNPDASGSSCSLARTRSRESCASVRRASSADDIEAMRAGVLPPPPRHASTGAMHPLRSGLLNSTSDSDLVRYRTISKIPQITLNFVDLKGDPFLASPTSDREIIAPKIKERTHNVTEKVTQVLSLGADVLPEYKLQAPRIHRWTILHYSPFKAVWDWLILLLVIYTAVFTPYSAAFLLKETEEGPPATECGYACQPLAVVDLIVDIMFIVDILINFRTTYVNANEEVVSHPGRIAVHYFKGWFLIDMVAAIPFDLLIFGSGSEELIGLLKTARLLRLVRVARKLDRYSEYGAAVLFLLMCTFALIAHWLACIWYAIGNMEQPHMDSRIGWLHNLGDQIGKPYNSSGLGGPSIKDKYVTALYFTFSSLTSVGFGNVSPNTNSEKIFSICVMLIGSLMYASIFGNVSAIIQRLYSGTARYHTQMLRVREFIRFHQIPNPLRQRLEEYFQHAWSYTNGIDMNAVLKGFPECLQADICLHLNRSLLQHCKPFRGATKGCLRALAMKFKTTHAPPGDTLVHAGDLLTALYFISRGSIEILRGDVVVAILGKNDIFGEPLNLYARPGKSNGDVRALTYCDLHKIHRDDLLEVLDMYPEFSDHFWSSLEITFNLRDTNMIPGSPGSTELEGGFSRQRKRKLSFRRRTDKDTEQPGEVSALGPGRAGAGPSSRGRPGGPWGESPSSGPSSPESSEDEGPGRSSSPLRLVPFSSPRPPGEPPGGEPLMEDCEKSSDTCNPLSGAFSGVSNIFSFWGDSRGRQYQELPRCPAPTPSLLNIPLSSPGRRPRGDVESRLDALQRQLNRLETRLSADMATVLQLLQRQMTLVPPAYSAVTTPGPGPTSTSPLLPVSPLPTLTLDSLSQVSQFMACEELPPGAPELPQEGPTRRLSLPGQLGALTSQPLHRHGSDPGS
Description: Cells: Stable CHO-K1 cells expressing hERG channels (from AVIVA Biosciences) were used in the assay.
Patch Clamp recording: The recordings were performed on conventional patch clamp (Axon Multiclamp 700B, Digidata 1440, pCLAMP 10, Molecular Devices Corporation or HEKA EPC10/Patchmaster system, HEKA Elektronik Corporation) at room temperature, using the whole-cell patch clamp techniques. The composition of external solution was (mM): HEPES 10, NaCl 145, KCl 4, CaCl2 2, MgCl2 1, Glucose 10, pH to 7.4 with 1N NaOH, osmolarity to 290-300 mOsm. Filtered and kept at 4° C. The composition of internal solution was (mM): KOH 31.25, KCl 120, CaCl2 5.374, MgCl2 1.75, EGTA 10, HEPES 10, Na2-ATP 4, pH to 7.2 with 1N KOH, osmolarity to 280-290 mOsm. Filtered and kept at −20° C.
For conventional patch clamp, 35 mm culture dishes or recording chambers containing CHO-hERG cells were placed on the stage of an inverted/upright microscope and continuously perfused with external solutions from a perfusion system (RSC-160 Rapid solution Changer, BioLogic or OctaFlow I, ALA Scientific Instruments Inc).
Test compounds were dissolved in 100% DMSO to make stock solutions for each test concentration, and then diluted into external solutions to achieve final concentration for testing. Final DMSO concentration was not more than 0.3%.
Voltage command protocol: From the holding potential of −80 mV, the voltage was first stepped to 60 mV for 850 ms to open hERG channels. Then the voltage was stepped back down to −50 mV for 1275 ms, causing a “rebound” or tail current, which was measured and collected for data analysis. Finally, the voltage was stepped back to the holding potential (−80 mV). This voltage command protocol was repeated every 15000 msec. This command protocol was performed continuously during the test (vehicle control, test compounds).
Compound effect (% inhibition) was determined by difference in current amplitude before and after the application of test compounds. IC50 values were determined from concentration-response curves that were obtained with Hill fitting.

[5] = Hepatocyte stability assay, cynomolgus monkey; format: in vitro ADME; conditions: hepatocytes
Description: as §1, §2, §3, §4, §5, §6

CYP 3A4 = target: T2, CYP 3A4 (Homo sapiens, UniProt P08684); assay: Reversible CYP inhibition in human liver microsomes, CYP 3A4; format: in vitro ADME
T2 construct: individual CYPs in a pool of human liver microsomes; from tissue; host or cells: pooled human liver microsomes
T2 sequence (P08684 whole entry): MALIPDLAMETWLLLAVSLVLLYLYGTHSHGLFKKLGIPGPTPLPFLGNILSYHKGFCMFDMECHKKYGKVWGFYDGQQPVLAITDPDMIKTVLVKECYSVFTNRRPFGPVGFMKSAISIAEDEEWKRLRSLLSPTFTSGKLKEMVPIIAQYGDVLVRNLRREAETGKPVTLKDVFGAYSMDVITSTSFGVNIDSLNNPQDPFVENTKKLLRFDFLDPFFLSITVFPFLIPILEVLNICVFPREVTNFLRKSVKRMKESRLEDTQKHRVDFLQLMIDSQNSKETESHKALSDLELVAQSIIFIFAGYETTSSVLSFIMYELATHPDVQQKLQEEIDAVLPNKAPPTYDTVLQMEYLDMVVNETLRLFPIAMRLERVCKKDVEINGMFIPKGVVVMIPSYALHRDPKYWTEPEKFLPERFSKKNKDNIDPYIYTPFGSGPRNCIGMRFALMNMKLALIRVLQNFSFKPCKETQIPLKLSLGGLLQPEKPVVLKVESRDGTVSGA
Description: as §7

[6] = Hepatocyte stability assay, human; format: in vitro ADME; conditions: hepatocytes
Description: as §1, §2, §3, §4, §5, §6

CYP 2D6 = target: T3, CYP 2D6 (Homo sapiens, UniProt P10635); assay: Reversible CYP inhibition in human liver microsomes, CYP 2D6; format: in vitro ADME; conditions: bufuralol, read-out: Cyp microsome IC50, 2D6
T3 construct: individual CYPs in a pool of human liver microsomes; from tissue; host or cells: pooled human liver microsomes
T3 sequence (P10635 whole entry): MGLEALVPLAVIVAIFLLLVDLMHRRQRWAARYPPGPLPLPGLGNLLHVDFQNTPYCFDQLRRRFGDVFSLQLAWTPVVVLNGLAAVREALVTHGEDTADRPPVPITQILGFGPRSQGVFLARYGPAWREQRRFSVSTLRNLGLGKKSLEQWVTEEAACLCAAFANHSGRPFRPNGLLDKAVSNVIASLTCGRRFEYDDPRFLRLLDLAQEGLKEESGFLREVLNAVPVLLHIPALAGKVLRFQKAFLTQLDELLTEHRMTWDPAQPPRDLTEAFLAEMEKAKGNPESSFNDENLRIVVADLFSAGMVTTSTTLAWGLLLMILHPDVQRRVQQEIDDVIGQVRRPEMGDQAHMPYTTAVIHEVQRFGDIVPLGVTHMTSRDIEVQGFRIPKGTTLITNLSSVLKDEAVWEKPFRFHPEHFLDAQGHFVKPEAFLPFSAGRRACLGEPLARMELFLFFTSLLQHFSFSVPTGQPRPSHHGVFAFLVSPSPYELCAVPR
Description: as §7

[7] = CD-1, hepatocytes, mouse (ms), 1 μM, read-out: Hepatocyte stability (t½)
[8] = rat (r), 1 μM, read-out: Hepatocyte stability (t½)
[9] = cynomolgus monkey (cy), 1 μM, read-out: Hepatocyte stability (t½)
[10] = human (hu), 1 μM, read-out: Hepatocyte stability (t½)

Compound | half-life at 1 μM [1, 7] | half-life at 1 μM [2, 8] | solubility (Solubility at pH 6.8; read-out: Solubility (pH 6.8)) | IC50 (CYP 2C9) | Plasma protein % binding ([3]; mouse (ms), 4 hours) | ALogD (pH 7.4) [4] | hERG inhibition (manual patch) (hERG channels; at 5 uM) | half-life at 1 μM [5, 9] | IC50 (CYP 3A4) | half-life at 1 μM [6, 10] | IC50 (CYP 2D6) | half-life at 1 μM ([1]; CD-1, mouse, hepatocytes) | half-life at 1 μM ([2]; rat) | solubility (Solubility at pH 6.8) | Plasma protein % binding ([3]; mouse, 4 h) | IC50 (hERG channels) | half-life at 1 μM ([5]; cynomolgus monkey) | half-life at 1 μM ([6]; human)
O=C(CNC(=O)c1ccc(C2=NO[C@](c3cc(Cl)cc(C(F)(F)F)c3)(C(F)(F)F)C2)c2ccccc12)NCC(F)(F)F (racemic) [Afoxolaner, afoxolaner] | > 3.62 h | > 3.62 h | < 1 µM | 2.9 µM | 97.8 (ms), % | 6.1 | 0.9% ± 2.5% | > 3.62 h | > 50 µM | > 3.62 h | > 50 µM |  |  |  |  |  |  | 
O=C(CNC(=O)c1ccc(C2=NO[C@@](c3cc(Cl)cc(Cl)c3)(C(F)(F)F)C2)c2ccccc12)NCC(F)(F)F [(S)-4-(5-(3,5-dichlorophenyl)-5-(trifluoromethyl)-4,5-dihydroisoxazol-3-yl)-N-(2-oxo-2-((2,2,2-trifluoroethyl)amino)ethyl)-1-naphthamide] |  |  |  | 1.9 µM |  | 5.8 |  |  | > 50 µM |  | 17.2 µM | 0.983 h | 1.28 h | < 1 µM | >99.9% (ms, r, d, hu) | 19.9 µM | 0.7 h | 1.05 h
O=C(CNC(=O)c1ccc(C2=NO[C@@](c3cc(Cl)cc(C(F)(F)F)c3)(C(F)(F)F)C2)c2ccccc12)NCC(F)(F)F [(S)-afoxolaner] | 1.07 h | 1 h | < 1 µM | 4.2 µM | >99.9 (ms, r, hu), % | 6.1 |  | 0.833 h | > 50 µM | 1.1 h | 19 µM |  |  |  |  | > 30 µM |  | 
